Source: US20210052566A1, “METHODS FOR TREATING HEPATITIS B VIRUS (HBV) INFECTION” (INSERM (INSTITUT NATIONAL DE LA SANTÉ ET DE LA RECHERCHE …, priority 2018, published 2021)

How the values were obtained:
[1] = test system: HDV genotype 1; assay: Hepatitis delta virus replication in infected dHepaRG cells (intracellular HDV RNA, RTqPCR); assay type: cell-based; conditions: HDV MOI 10 vge/cell, 10 microM three times post-infection
Method: (§1) FIG. 1. Experimental outlines. Treatment schemes: (a) Treatments in pre-infection: dHepaRG cells were treated for 24 h (at day −1) with 100 nM of PreS1 peptide (PreS1-pep) or 10 μM of 1C8, or untreated (NT). At day 0, cells were inoculated with HBV (MOI=250) or with HDV (MOI=25) in the presence of drugs for 24 h. For the tenofovir control (TDF at 10 μM), cells were treated at day 1 and 4 post-infection. Supernatant and cells were harvested at day 7 post-infection. (b) Treatments in post-infection: dHepaRG cells were inoculated with HBV (MOI=250) or with HDV (MOI=25). At days 4, 7 and 9 post infection, cells were treated with TDF 10 μM, lamivudine (3TC) at 10 μM, 1C8 10 μM or untreated (NT). Supernatant and cells were harvested at day 11 postinfection.
FIG. 5. […] B) HBs and HBe secreted antigens in supernatant were quantified by ELISA, whereas HBV DNA contained in virions was quantified by qPCR after viral nucleic acid extraction from supernatant. C) Intracellular HDV RNA was quantified by RTqPCR after total RNA extraction from cells. D) Viability was monitored in 1C8-treated (or control treated; puromycin is a positive toxic molecule) cells by CellTiter-Glo® luminescent cell viability assay. […] Statistics were done by two-tailed Mann-Whitney test, with following significativity: *P<0.05, **P<0.01, ***P<0.001, ****P<0.0001. nd=not determined

[2] = test system: HBV genotype C; assay: De novo establishment of HBV infection/cccDNA in naive dHepaRG, genotype C (treatment before and during inoculation); assay type: cell-based, Hepatitis B virus
Method: as §1, with “Supernatant and cells were harvested at day 11 postinfection.” left out
FIG. 8. […] B) HBs and HBe secreted antigens in supernatant were quantified by ELISA, whereas HBV DNA contained in virions was quantified by qPCR after viral nucleic acid extraction from supernatant. […] Statistics were done by two-tailed Mann-Whitney test, with following significativity: *P<0.05, **P<0.01, ***P<0.001, ****P<0.0001. nd=not determined […]
From cell culture supernatants, secreted HBe and HBs antigens were quantified by ELISA, using a chemiluminescence immunoassay kit (Autobio, China) following manufacturer's instructions. […]
A HBV standard was used for quantification of extracellular viral DNA and RNA. […] CccDNA was normalized to β-Globin quantification. […]

[3] = test system: HIV-1; conditions: cited from earlier work

Question: Which results are given for Cn1ccc(=O)c(C(=O)Nc2nsc3ccc([N+](=O)[O-])cc23)c1 [1C8, 4-pyridinonebenzisothiazole carboxamide]?
Answer: inhibition of replication of hepatitis delta virus [1]: not capable to inhibit; inhibition at 10 µM ([2]; Hepatitis B virus, dHepaRG treated before and during HBV inoculation): 70%; other viral markers (intracellular RNAs, HBeAg, HBsAg), genotype C ([2]; dHepaRG treated before and during inoculation, 10 microM): also reduced; inhibition of HIV-1 replication [3]: strong inhibitor
